From patent US20230270815A1, “Apoptosis inducing peptide (SSTP1)” (Rajiv Gandhi Centre For Biotechnology, priority 2020, published 2023)
Entries after “also recorded” stand apart in the source; their conditions may differ. Residues, ends and D or L forms follow the SMILES beside them.

What was measured:
IL6Rα [1] = molecular target: T1, IL6Rα (Homo sapiens, UniProt P08887); assay: Pull-down assay using biotin-labelled peptides; type: binding
T1 sequence (P08887 20-468): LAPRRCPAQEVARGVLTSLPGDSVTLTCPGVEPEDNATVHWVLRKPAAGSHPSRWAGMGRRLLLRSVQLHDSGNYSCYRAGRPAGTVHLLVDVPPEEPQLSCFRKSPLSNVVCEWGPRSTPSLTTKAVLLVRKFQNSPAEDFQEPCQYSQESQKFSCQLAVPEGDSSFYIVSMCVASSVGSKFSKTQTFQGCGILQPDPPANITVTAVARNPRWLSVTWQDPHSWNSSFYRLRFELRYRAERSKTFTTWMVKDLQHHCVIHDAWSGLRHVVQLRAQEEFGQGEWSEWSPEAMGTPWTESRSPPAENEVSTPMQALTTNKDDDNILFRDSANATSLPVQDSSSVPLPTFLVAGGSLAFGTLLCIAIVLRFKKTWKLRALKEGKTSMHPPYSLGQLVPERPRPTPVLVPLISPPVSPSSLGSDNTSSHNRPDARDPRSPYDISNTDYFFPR
From the text: To check whether SSTP1 activates the IL6/IL6R pathway by binding to IL6Rα, we checked the co-localization of SSTP1 and IL6Rα on cell membrane. […] To visualize the IL6R-dependent SSTP1 endosomal up-take, we used an early endosome marker, Rab5C. We observed the co-existence of SSTP1 and IL6Rα within early endosomes, marked by Rab5C (FIGS. 4c and d). […] The physical interaction of SSTP1 and IL6Rα was also ascertained using FRET analysis (FIG. 4f).
FIG. 4 illustrates SSTP1 interacts with IL6Rα and mediates the uptake of SSTP1 specifically FIG. 4(a) discusses HSC-4 cells were treated with Biotin labelled SSTP1 or SSTP2 (10 μM) for 30 minutes and then fixed and probed without permeabilization using mouse IL6Rα. 4(b) illustrates the co-localization of SSTP1 or SSTP2 to IL6Rα was analyzed for 11 cells and the Pearson's correlation was plotted. 4(c) illustrates cells were treated as in panel (a) and fixed and permeabilized to probe for IL6Rα, SSTP1 and Rab5c. The arrow mark indicates the co-localization. The scales bars represent 4 μm. 4(d) illustrates the Mander's overlap in SSTP1 foci were quantified for 10 cells. The average values for each cell is plotted. 4(e) illustrates the pull down assay using SSTP1-biotin and probed for IL6Rα. 4(f) illustrates the FRET analysis to show the SSTP1 binding to IL6Rα.

AP1 = assay: Luciferase AP1 reporter assay; type: cell-based; conditions: in comparison to SSTP2
[2] = test system: Caspase 3, 7, 8, 9 and PARP in HSC-4 cells; assay: Western blot for caspase and PARP cleavage; type: cell-based; conditions: HSC-4, 10 μM
[3] = test system: JAK/STAT, JNK/AP1, MAPK and AKT phosphorylation in HSC-4 cells; assay: Western blot of JAK/STAT, JNK/AP1, MAPK and PI3K pathway phosphorylation; type: cell-based; conditions: HSC-4, 10 μM
From the text: a. […] The phosphorylated forms of STAT1 (Y701) and STAT3 (Y705) were probed for western blot to see the JAK/STAT pathway activation. Another phosphorylation of STAT3 at S727, which is reported to be independent of JAK activation, was also probed. […] All these biochemical analyses point out that SSTP1 preferentially down-regulates JAK-mediated-phosphorylation of STATs and MAPK, simultaneously up-regulating phosphorylation of JNK1 and cJUN. b.

HSC-4 cells [4] = assay: Annexin/PI staining with FACS analysis; type: cell-based; conditions: HSC-4, 10 μM, 22 h
Procedure: To check whether the cytotoxic effect is due to apoptosis, Annexin/PI staining was performed, with the population with Annexin alone (early apoptotic), Annexin/PI dual stained (late apoptotic) and PI alone (dead cells) were quantified by FACS.

IL6Rα [5] = molecular target: T1, IL6Rα; assay: Co-localization of peptide and IL6Rα on cell membrane (Pearson's coefficient); type: cell-based; set-up: fixed and probed without permeabilization using mouse IL6Rα; endogenous in cells; host or cells: HSC-4; conditions: HSC-4, 10 μM, 30 minutes
From the text: To check whether SSTP1 activates the IL6/IL6R pathway by binding to IL6Rα, we checked the co-localization of SSTP1 and IL6Rα on cell membrane. […] To visualize the IL6R-dependent SSTP1 endosomal up-take, we used an early endosome marker, Rab5C. We observed the co-existence of SSTP1 and IL6Rα within early endosomes, marked by Rab5C (FIGS. 4c and d). […] The physical interaction of SSTP1 and IL6Rα was also ascertained using FRET analysis (FIG. 4f). FIG. 4 illustrates SSTP1 interacts with IL6Rα and mediates the uptake of SSTP1 specifically FIG. 4(a) discusses HSC-4 cells were treated with Biotin labelled SSTP1 or SSTP2 (10 μM) for 30 minutes and then fixed and probed without permeabilization using mouse IL6Rα. 4(b) illustrates the co-localization of SSTP1 or SSTP2 to IL6Rα was analyzed for 11 cells and the Pearson's correlation was plotted. 4(c) illustrates cells were treated as in panel (a) and fixed and permeabilized to probe for IL6Rα, SSTP1 and Rab5c. The arrow mark indicates the co-localization. The scales bars represent 4 μm. 4(d) illustrates the Mander's overlap in SSTP1 foci were quantified for 10 cells. The average values for each cell is plotted. 4(e) illustrates the pull down assay using SSTP1-biotin and probed for IL6Rα. 4(f) illustrates the FRET analysis to show the SSTP1 binding to IL6Rα.

human RBCs = assay: Hemolysis of human RBCs; conditions: 5 μM
Procedure: (§1) Further, the growth inhibitory property of SSTP1 on different cell lines with different levels of IL6Rα was investigated. Six cancer cell lines of different origin were evaluated for their IL6Rα expression in comparison to HSC-4 by western blot (FIGS. 8a and b). […] Since many of the bioactive peptides induce hemolysis, we evaluated the hemolysis induced by SSTP1 (FIG. 8d).

HSC-4 cells [6] = test system: HSC-4 cells
Procedure: Evaluation of the cytotoxicity of SSTP1 and SSTP2 was performed using MTT assay in an oral cancer cell line, HSC-4 at various concentrations of the respective peptides.

MDA-MB-231 cells = conditions: read-out: IC50 growth inhibition (MTT)
human leukocytes = assay: Trypan blue exclusion of leukocytes; conditions: 4.5 μM, 48 h
[7] = test system: six cancer cell lines of different origin; assay: MTT assay in six cancer cell lines with up-regulated IL6Rα; type: cell-based; conditions: 10 μM SSTP1, all six cell lines
Procedure: as §1

HSC-4 cells [8] = assay: MTT assay of SSTP1-induced growth inhibition with or without inhibitors; type: cell-based; conditions: 4 h, SSTP1 10 μM; LMT-28 60 μM, Anti-IL6Rα 10 μg/ml, SC144 40 μM
From the text: (§2) a. Inhibitors for IL6 (LMT-28), JAK (Ruxolitinib), gp130 (SC-144) and JNK (SP600125) as well as Anti-IL6Rα were used to check the dispensability of each of these molecules in inducing apoptosis by SSTP1. […] The SSTP1-mediated up-regulation of pJNK was not appreciably affected by either of these inhibitors, while pcJUN up-regulation was inhibited by only SP600125 (FIGS. 7a and b). […] LMT28 binds to the interface between IL6 and gp130 to block the activity of IL6. Since SSTP1 binds to a different site on the IL6/IL6Rα/gp130 complex, i.e., the interface of IL6 and IL6Rα, there is no competitive inhibition when we add LMT28. b.

[9] = test system: STAT, JNK and cJUN phosphorylation in HSC-4 cells; assay: Western blot of HSC-4 cells treated with SSTP1 and inhibitors; type: cell-based; conditions: HSC-4, SSTP1 10 μM, SC144 40 μM, Anti-IL6Rα 10 μg/ml, 30 minutes
From the text: as §2

## CC[C@H](C)[C@H](NC(=O)[C@H](CC(C)C)NC(=O)[C@H](CC(C)C)NC(=O)[C@@H]1CCCN1C(=O)[C@H](CC(C)C)NC(=O)[C@@H](N)Cc1ccccc1)C(=O)N[C@@H](CO)C(=O)N[C@@H](C)C(=O)N[C@@H](CC(C)C)C(=O)N[C@H](C(=O)N[C@@H](CO)C(=O)N[C@@H](CC(C)C)C(=O)N[C@@H](Cc1ccccc1)C(=O)N1CCC[C@H]1C(=O)N[C@@H](CCCCN)C(=O)N[C@@H](CC(C)C)C(=O)NCC(=O)N[C@@H](CCCCN)C(N)=O)[C@@H](C)O [SSTP1, FLPLLISALTSLFPKLGK] (H-FLPLLISALTSLFPKLGK-NH2)
IL6Rα [1]
  physical interaction with IL6Rα (pull-down): stronger than that of SSTP2
AP1
  AP1 activity (luciferase reporter): activated
[2]
  Caspase 8 cleavage: unaffected
  cleavage of Caspase 3, 7 and 9: active cleavage
  time to PARP cleavage: ≤ 16 h
[3]
  STAT1 (Y701) phosphorylation: did not affect STAT1 (Y701) phosphorylation significantly
  STAT3 (Y705) phosphorylation: drastically reduced
  pJNK2 levels: up-regulated
  pSTAT3(S727): slight up-regulation
  pc-JUN level: increased level
  phosphorylation of JNK1: markedly up-regulated
HSC-4 cells [4]
  increase in early apoptotic population: 3 fold
IL6Rα [5]
  co-localization to IL6Rα on cell surface: several foci on the cell surface with co-localization
Human RBCs
  hemolysis: 0.25%
HSC-4 cells [6]; read-out: IC50 growth inhibition (MTT), HSC-4 cells
  IC50: 10.2 µM
MDA-MB-231 cells
  IC50: 4.5 µM
Human leukocytes
  viability of leukocytes: did not affect the viability; also recorded: no adverse effect; also recorded: Illustrates SSTP1 do not induce cell death in human leukocytes
[7]
  growth inhibitory potential compared to HSC-4: drastic increase in the growth inhibitory potential

## CC[C@H](C)[C@H](NC(=O)[C@H](CCCNC(=N)N)NC(=O)[C@H](CCCNC(=N)N)NC(=O)[C@@H]1CCCN1C(=O)[C@H](CC(C)C)NC(=O)[C@@H](N)Cc1ccccc1)C(=O)N[C@@H](CO)C(=O)N[C@@H](C)C(=O)N[C@@H](CCCNC(=N)N)C(=O)N[C@H](C(=O)N[C@@H](CO)C(=O)N[C@@H](CC(C)C)C(=O)N[C@@H](Cc1ccccc1)C(=O)N1CCC[C@H]1C(=O)N[C@@H](CCCCN)C(=O)N[C@@H](CCCNC(=N)N)C(=O)NCC(=O)N[C@@H](CCCCN)C(N)=O)[C@@H](C)O [SSTP2, FLPRRISARTSLFPKRGK-NH2, reference compound] (H-FLPRRISARTSLFPKRGK-NH2)
HSC-4 cells [6]
  cytotoxicity (MTT), result in words: ineffective in inducing cytotoxicity

## O=C(NNc1nc2cc(F)ccc2n2cccc12)c1cnccn1 [SC144]
HSC-4 cells [8]
  effect on SSTP1-induced growth inhibition: significantly inhibited
[9]
  phosphorylation of STATs, JNK and cJUN: significantly reduced
